From patent US20250179033A1 (priority 2021, published 2025) come the findings set out here.

Structures are written as SMILES. Read-outs that look alike come from different tables or passages of the source. Bounds are passed on as bounds.

One may read the IC50 as the concentration that gives 50% inhibition. The CC50 is the concentration that lowers cell viability or growth by half. One may read the half-life as the time in which the quantity being followed falls by half. As usually defined, the microsomal CLint is the capacity of the preparation to metabolise the compound, expressed as a volume cleared per time. Low values mean slow turnover, high ones rapid turnover.

The target in series [1] is CYP3A4 (Homo sapiens, UniProt P08684). The series is described as follows: Human CYP inhibition in human liver microsomes. It counts as in vitro ADME. The method, then: Study samples (containing either control inhibitor or test compound) were added into the tubes, vortexed gently and pre-incubated for 5 min at 37° C. 20 μL of NADPH solution was aliquoted into all tubes, then vortexed to start the reaction and to assure adequate mixture of the NADPH. After mixing, the tubes were incubated for 20 min at 37° C. in a shaking water bath and then quenched in […] formic acid/acetonitrile solution. After quenching, the samples were vortexed vigorously for 1 min and centrifuged at 4,000 rpm for 15 min (4° C.). 100 μL of supernatant was transferred to 0.65 ml tubes for LCMS analysis by the bioanalytical method described earlier. The CYP450 substrates and control inhibitors for each enzyme was as follows: CYP1A2 (phenacetin, naphthoflavone), CYP2C9 (diclofenac, sulfaphenazole), CYP2C19 (omeprazole, tranylcypromine), CYP2D6 (dextromethorphan, quinidine), CYP3A4 (midazolam, ketoconazole).
Chain of CYP3A4 (P08684 whole entry): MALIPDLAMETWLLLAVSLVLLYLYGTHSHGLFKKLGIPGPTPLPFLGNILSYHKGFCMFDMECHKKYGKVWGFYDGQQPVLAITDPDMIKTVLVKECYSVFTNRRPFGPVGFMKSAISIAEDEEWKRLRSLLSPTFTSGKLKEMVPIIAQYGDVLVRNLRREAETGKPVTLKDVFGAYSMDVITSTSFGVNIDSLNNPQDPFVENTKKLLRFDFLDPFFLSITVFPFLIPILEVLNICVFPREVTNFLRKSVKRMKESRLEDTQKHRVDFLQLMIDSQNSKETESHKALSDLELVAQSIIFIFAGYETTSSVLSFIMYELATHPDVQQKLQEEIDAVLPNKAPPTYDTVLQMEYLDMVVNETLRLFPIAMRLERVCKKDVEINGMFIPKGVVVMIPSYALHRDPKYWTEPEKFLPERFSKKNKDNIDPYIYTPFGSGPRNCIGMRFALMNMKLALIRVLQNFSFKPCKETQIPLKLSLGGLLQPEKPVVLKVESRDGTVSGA
(Liver microsomes are vesicles of endoplasmic reticulum, rich in cytochrome P450 enzymes.)

The nature of series [2]: Mouse liver microsome stability. Format: in vitro ADME. The method, then: (§1) Mouse/Human liver microsome stability: A liver microsome solution (197.5 μL, 1.27 mg/ml protein concentration) (Sekisui Xenotech, Kansas City, KS) was aliquoted into 1.1 ml tubes, to which 2.5 μL of positive control and compound stock solutions (100 μM in DMSO) were added. The tubes were vortexed gently, pre-incubated for 5 min at 37° C., then 50 μL of 5 mM NADPH or LM buffer (no NADPH buffer) was added into the tubes. For analysis, an aliquot of 15 μL was removed from each tube at 0, 5, 15, 30 and 60 min (without-NADPH reaction: 0, 30 and 60 min) and quenched with 300 μL of 25 ng/ml propranolol in acetonitrile. Samples were vigorously vortexed for 1 min and then centrifuged at 4,000 rpm for 15 min at 4° C. 100 μL of supernatant from each sample was transferred to 0.65 ml tubes for LCMS analysis. The amount of parent compound was determined on the basis of the peak area ratio (compound area to IS area) for each time point. Clearance rates were calculated by the equation: […]

Series [3] is described as follows: Human liver microsome stability. Format: in vitro ADME. The method, then:
as §1

Series [4] is described as follows: in vitro. It counts as in vitro ADME, mouse. On the procedure:
Protein Binding in Plasma: The donor side of dialysis inserts were filled with 200 μL plasma (human and mouse; source BioDuro, San Diego, California, United States of America) containing 5 μM drug and 0.5% of DMSO and the receiver side of the dialysis inserts was filled with 350 μL of PBS buffer (100 mM, pH 7.4). The prepared dialysis apparatus was placed in a shaker (37° C., 100 rpm) for 5 hours. Two tubes with plasma containing 5 μM experimental compound were also prepared for stability test: one tube was placed in the […] for 5 hours and the other tube was placed in shaker ([…], 100 rpm) for 5 hours. Samples were collected from the donor and receiver sides of each dialysis insert. The same volume of blank plasma was added to buffer samples and blank buffer to plasma samples to make sure all sample mixtures contain 50% plasma and 50% buffer. 50 μL of each sample was mixed with 300 μL of acetonitrile containing 25 ng/ml internal standard (propranolol). All samples were vortexed for 1 minute and then centrifuged at 4000 rpm, 4° C. for 15 min. 100 μL of the supernatant was transferred to 0.65 ml tube for LCMS analysis. The amount of compound was determined on the basis of the peak area ratio (compound area to internal standard area) for the two sides, and protein binding is determined using the following equations: % Bound=100×([Area Ratio of Donor]5h*5−[Area Ratio of Receiver]5h)/([Area Ratio of Donor]5h*5). The percentage remaining at 37° C. after 5 hours was calculated on the basis of the amount measured at 0° C. after 5 hours.

For series [5], the system named is HIV-1 IIIB A17 variant (Y181C/K103N). The series is described as follows: HIV inhibition assay in TZM-bl cells, A17 variant. It counts as cell-based. In a few lines: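 TZM-bl cells with 15 μg/mL DEAE-dextran were infected with H9-grown HIV-1 IIIB, wild-type or A17 (Y181C/K103N), in the presence of compound (0.005% or 0.05% DMSO) for 48 h at 37 °C. Luciferase RLU was read after lysis. Toxicity was measured in parallel by CellTiter-Blue fluorescence.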

Series [6] in a line: Toxicity assay in TZM-bl cells. The note with it: human. Format: cell-based. In a few lines: (§2)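 TZM-bl cells (2×10^5/mL, with DEAE-dextran) were exposed to serially diluted compound plus virus at a constant 0.005% or 0.05% DMSO for 48 h at 37 °C. CellTiter-Blue was added at 46 h and incubated 2 h. Viability was read as fluorescence at 560/590 nm after stopping with 1.5% SDS.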

For series [7], the system named is TZM-bl cells. Description: Toxicity assay in TZM-bl cells. Format: cell-based. The method, boiled down:
as §2

Setting [8] is: Human immunodeficiency virus 1, IIIB, TZM-bl, read-out: IC50 (TZM, A17), Table 3, TZM-bl, ± SEM, minimum 6 replicates.
[9] abbreviates: Human immunodeficiency virus 1, IIIB, TZM-bl, read-out: IC50 (TZM, A17), Table 4, TZM-bl.

Consider `Nc1nc(Nc2ccc(Cl)cc2)nn1S(=O)(=O)c1ccc2ccccc2c1` [Compound 1, N3-(4-chlorophenyl)-1-(2-naphthylsulfonyl)-1,2,4-triazole-3,5-diamine], for which the IC50 was above 50000 nM in series [1], above 1000 nM in series [5] (setting [8]) and above 1000 nM in series [5] (setting [9]). In addition, the “Mouse liver microsomes, stability in words” value in series [2] is “protein, stable”. The “Mouse liver microsomes CLint” value in series [2] (mouse, liver microsomes, 1 μM) amounted to 10.4 μL/min/mg protein. The “Human liver microsomes, stability in words” value in series [3] is given as “protein, stable”. For the same molecule, in series [3] (human, liver microsomes, 1 μM), the “Human liver microsomes CLint” value is 2.0 μL/min/mg protein. Also, the “Mouse plasma protein binding” value in series [4] (5 μM, dialysis 5 hours) was above 99.9%. The same molecule had a CC50 at 48 h in series [6] above 1000 nM. Moreover, the “Qualitative Cell Toxicity within inhibition range” value in series [7] was “None”.
As to `N#C/C=C/c1ccc2c(S(=O)(=O)n3nc(Nc4ccc(C#N)c(Cl)c4)nc3N)cccc2c1` [Compound 20, 4-[[5-amino-1-[[6-[2-cyanovinyl]-1-naphthyl]sulfonyl]-1,2,4-triazol-3-yl]amino]-2-chloro-benzonitrile], the IC50 in series [1] (human liver microsomes, substrate midazolam, read-out: CYP inhibition IC50, 3A4) was 31300 nM; in series [5] (setting [8]) it was 0.689 ± 0.143 nM; in series [5] (setting [9]) it was 45.4 nM. Also, in series [2], the “Mouse liver microsomes, stability in words” value is reported as “stable”. Besides, the half-life at 1 μM amounted to 2.07 h in series [2] (mouse, liver microsomes) and 0.897 h in series [3] (human, liver microsomes). For the same molecule, the microsomal CLint at 1 μM in series [2] (mouse, liver microsomes) came out at 11.1 µL/min/mg; in series [3] (human, liver microsomes) it was 25.8 µL/min/mg. Moreover, in series [3], the “Human liver microsomes, stability in words” value is reported as “stable”. In addition, the half-life at 5 μM in series [4] (mouse, plasma) was above 6.21 h. The fraction unbound in series [4] (mouse, plasma, pH 7.4, 5 μM, dialysis 5 hours, read-out: Mouse plasma protein binding) is below 0.001. Moreover, the “activity against the A17 variant, in words” value in series [5] was “retained potent activity”. In addition, the EC50 in series [5] (Human immunodeficiency virus 1, IIIB, TZM-bl, read-out: activity against the A17 double mutant (Y181C/K103N), EC50) was determined as 1.86 nM. The CC50 at 48 h in series [6] (Table 4, TZM-bl, read-out: CC50 (TZM)) was 4950 nM; in series [6] (text b494, FIG. 2F, read-out: cytotoxicity CC50), 5350 nM. The “Qualitative Cell Toxicity within inhibition range” value in series [7] (Table 3, TZM-bl) is recorded as “None”. Moreover, the “Quantitative Cell Toxicity” value in series [7] (Table 3, TZM-bl) worked out at 4.06 µM.
